Assays:
h-GABA-A α2β2γ1 = h-GABA-A α2β2γ1 (Homo sapiens (Human), UniProt P47869+Q8N1C3); experiment: Two-electrode voltage clamp electrophysiology in Xenopus oocytes expressing GABAA receptors; assay type: cell-based; settings: Table 2; for Efficacy (GABA) %: % modulation of GABA EC20 = 100*(Fold increase-1), compound at 30-fold Ki; for Fold increase h-GABA-A α2β2γ1 oocyte @ 30-fold Ki: GABA EC20, test compound at approx. 30-fold its Ki α2β2γ1, Xenopus oocytes, -80 mV
Description: Xenopus laevis oocytes at maturation stages V-VI were used for the expression of cloned mRNA encoding GABAA receptor subunits. Oocytes ready for RNA micro-injection were bought from Ecocyte, Castrop-Rauxel, Germany and stored in modified Barth's medium (composition in mM: NaCl 88, KCl 1, NaHCO3 2.4, HEPES 10, MgSO4 0.82, CaNO3 0.33, CaCl2 0.33, pH=7.5) at 20° C. until the experiment.
Oocytes were plated in 96-well plates for microinjection using the Roboinject automated instrument (MultiChannelSystems, Reutlingen, Germany). Approximately 50 nL of an aqueous solution containing the RNA transcripts for the subunits of the desired GABAA receptor subtype was injected into each oocyte. […] Oocytes were kept in modified Barth's medium (composition in mM: NaCl 88, KCl 1, NaHCO3 […], HEPES 10, MgSO4 0.82, CaNO3 0.33, CaCl2 0.33, pH=7.5) at 20° C. until the experiment.
Electrophysiological experiments were performed using the Roboocyte instrument (MultiChannelSystems, Reutlingen, Germany) on days 3 to 5 after the micro-injection of mRNA. During the experiment the oocytes were constantly superfused by a solution containing (in mM) NaCl 90, KCl 1, HEPES 5, MgCl2 1, CaCl2 1 (pH 7.4). Oocytes were impaled by two glass microelectrodes (resistance: […]) which were filled with a solution containing KCl 1M+K-acetate 1.5 M and voltage-clamped to −80 mV. The recordings were performed at room temperature using the Roboocyte two-electrode voltage clamp system (Multichannelsystem). After an initial equilibration period of 1.5 min GABA was added for 1.5 min at a concentration evoking approximately 20% of a maximal current response (EC20). After another rest interval of 2.5 min GABA was again added evoking a response of similar amplitude and shape. […] Current traces were recorded at a digitization rate of 10 Hz during and shortly before and after the GABA application.
Each compound and concentration was tested on at least 3 oocytes. Different oocytes were used for different compound concentrations.
For the analysis, the digitized current traces of the first and second GABA response were superimposed and, if necessary, rescaled to equal maximal amplitudes. The ratio between the two responses during the time interval of test compound application was calculated point by point. The extremum of the resulting “ratio trace” was taken as the efficacy (“Fold increase”) of the compound expressed as “% modulation of GABA EC20” (100*(Fold increase−1)).

[1] = molecular target: human GABAA α1β2γ1 receptor (Homo sapiens (Human), UniProt P14867+Q8N1C3); experiment: Radioligand binding assay, competition for [3H]RO7239181, γ1-containing GABAA subtypes
[2] = Table 1, [3H]RO7239181 displacement, membranes from HEK293F cells, mean of two determinations

C[C@@H]1N=C(c2c(F)cccc2F)c2c(cnc(C(F)(F)F)c2Cl)-n2c1nc1c2CCC1 [Example 20, (10S)-6-chloro-8-(2,6-difluorophenyl)-10-methyl-5-(trifluoromethyl)-1,4,9,12-tetrazatetracyclo[9.6.0.02,7.013,17]heptadeca-2(7),3,5,8,11,13(17)-hexaene]
Efficacy (GABA) % (h-GABA-A α2β2γ1): 108% | Fold increase h-GABA-A α2β2γ1 oocyte @ 30-fold Ki (h-GABA-A α2β2γ1): 2.08

C[C@@H]1N=C(c2c(F)cccc2F)c2c(cnc(C(F)(F)F)c2Cl)-n2nc(C(=O)N3CC(C)(O)C3)nc21 [Example 10, [(7S)-11-chloro-9-(2,6-difluorophenyl)-7-methyl-12-(trifluoromethyl)-2,3,5,8,13-pentazatricyclo[8.4.0.02,6]tetradeca-1(10),3,5,8,11,13-hexaen-4-yl]-(3-hydroxy-3-methyl-azetidin-1-yl)methanone]
Efficacy (GABA) % (h-GABA-A α2β2γ1): 82% | Fold increase h-GABA-A α2β2γ1 oocyte @ 30-fold Ki (h-GABA-A α2β2γ1): 1.82 | Ki [1, 2]: 80.5 nM | Ki ([1]; Table 3, reference compounds comparison): 80.5 nM

C[C@@H]1N=C(c2c(F)cccc2F)c2c(cnc(C(F)(F)F)c2Cl)-n2nc(C(=O)N3CCC3)nc21 [Example 6, azetidin-1-yl-[(7S)-11-chloro-9-(2,6-difluorophenyl)-7-methyl-12-(trifluoromethyl)-2,3,5,8,13-pentazatricyclo[8.4.0.02,6]tetradeca-1(10),3,5,8,11,13-hexaen-4-yl]methanone]
Efficacy (GABA) % (h-GABA-A α2β2γ1): 91% | Fold increase h-GABA-A α2β2γ1 oocyte @ 30-fold Ki (h-GABA-A α2β2γ1): 1.91

Cc1nnc2n1-c1cnc(C3CC3)c(Cl)c1C(c1c(F)cccc1F)=N[C@H]2C [Example 2, (7S)-11-chloro-12-cyclopropyl-9-(2,6-difluorophenyl)-3,7-dimethyl-2,4,5,8,13-pentazatricyclo[8.4.0.02,6]tetradeca-1(10),3,5,8,11,13-hexaene]
Efficacy (GABA) % (h-GABA-A α2β2γ1): 162% | Fold increase h-GABA-A α2β2γ1 oocyte @ 30-fold Ki (h-GABA-A α2β2γ1): 2.62

C[C@@H]1N=C(c2c(F)cccc2F)c2c(cnc(C(F)(F)F)c2Cl)-n2cc(C(=O)NCCO)nc21 [Example 19, (7S)-11-chloro-9-(2,6-difluorophenyl)-N-(2-hydroxyethyl)-7-methyl-12-(trifluoromethyl)-2,5,8,13-tetrazatricyclo[8.4.0.02,6]tetradeca-1(10),3,5,8,11,13-hexaene-4-carboxamide]
Efficacy (GABA) % (h-GABA-A α2β2γ1): 170% | Fold increase h-GABA-A α2β2γ1 oocyte @ 30-fold Ki (h-GABA-A α2β2γ1): 2.70 | Ki [1, 2]: 48.9 nM

C[C@@H]1N=C(c2c(F)cccc2F)c2c(cnc(C(F)(F)F)c2Cl)-n2nc(NC(=O)C3COC3)nc21 [Example 12, N-[(7S)-11-chloro-9-(2,6-difluorophenyl)-7-methyl-12-(trifluoromethyl)-2,3,5,8,13-pentazatricyclo[8.4.0.02,6]tetradeca-1(10),3,5,8,11,13-hexaen-4-yl]oxetane-3-carboxamide]
Efficacy (GABA) % (h-GABA-A α2β2γ1): 143% | Fold increase h-GABA-A α2β2γ1 oocyte @ 30-fold Ki (h-GABA-A α2β2γ1): 2.43

C[C@@H]1N=C(c2c(F)cccc2F)c2c(cnc(C(F)(F)F)c2Cl)-n2nc(C(=O)N3CC(F)C3)nc21 [Example 7, [(7S)-11-chloro-9-(2,6-difluorophenyl)-7-methyl-12-(trifluoromethyl)-2,3,5,8,13-pentazatricyclo[8.4.0.02,6]tetradeca-1(10),3,5,8,11,13-hexaen-4-yl]-(3-fluoroazetidin-1-yl)methanone]
Efficacy (GABA) % (h-GABA-A α2β2γ1): 85% | Fold increase h-GABA-A α2β2γ1 oocyte @ 30-fold Ki (h-GABA-A α2β2γ1): 1.85

C[C@@H]1N=C(c2c(F)cccc2F)c2c(cnc(C(F)(F)F)c2Cl)-n2nc(C(=O)NCC(C)(C)O)nc21 [Example 21, (7S)-11-chloro-9-(2,6-difluorophenyl)-N-(2-hydroxy-2-methyl-propyl)-7-methyl-12-(trifluoromethyl)-2,3,5,8,13-pentazatricyclo[8.4.0.02,6]tetradeca-1(10),3,5,8,11,13-hexaene-4-carboxamide]
Efficacy (GABA) % (h-GABA-A α2β2γ1): 175% | Fold increase h-GABA-A α2β2γ1 oocyte @ 30-fold Ki (h-GABA-A α2β2γ1): 2.75

Cc1nnc2n1-c1cnc(C(F)(F)F)c(Cl)c1C(c1c(F)cccc1Cl)=N[C@H]2C [Example 17, (7S)-11-chloro-9-(2-chloro-6-fluoro-phenyl)-3,7-dimethyl-12-(trifluoromethyl)-2,4,5,8,13-pentazatricyclo[8.4.0.02,6]tetradeca-1(10),3,5,8,11,13-hexaene]
Efficacy (GABA) % (h-GABA-A α2β2γ1): 91% | Fold increase h-GABA-A α2β2γ1 oocyte @ 30-fold Ki (h-GABA-A α2β2γ1): 1.91 | Ki [1, 2]: 34.4 nM

C[C@@H]1N=C(c2c(F)cccc2F)c2c(cnc(C(F)(F)F)c2Cl)-n2nc(C(=O)NCCO)nc21 [Example 15, (7S)-11-chloro-9-(2,6-difluorophenyl)-N-(2-hydroxyethyl)-7-methyl-12-(trifluoromethyl)-2,3,5,8,13-pentazatricyclo[8.4.0.02,6]tetradeca-1(10),3,5,8,11,13-hexaene-4-carboxamide]
Efficacy (GABA) % (h-GABA-A α2β2γ1): 146% | Fold increase h-GABA-A α2β2γ1 oocyte @ 30-fold Ki (h-GABA-A α2β2γ1): 2.46 | Ki [1, 2]: 114 nM

C[C@@H]1N=C(c2c(F)cccc2F)c2c(cnc(C(F)(F)F)c2Cl)-n2nc(C(=O)N3CC(O)C3)nc21 [Example 8, [(7S)-11-chloro-9-(2,6-difluorophenyl)-7-methyl-12-(trifluoromethyl)-2,3,5,8,13-pentazatricyclo[8.4.0.02,6]tetradeca-1(10),3,5,8,11,13-hexaen-4-yl]-(3-hydroxyazetidin-1-yl)methanone]
Efficacy (GABA) % (h-GABA-A α2β2γ1): 114% | Fold increase h-GABA-A α2β2γ1 oocyte @ 30-fold Ki (h-GABA-A α2β2γ1): 2.14 | Ki [1, 2]: 48.8 nM

C[C@@H]1N=C(c2c(F)cccc2F)c2c(cnc(C(F)(F)F)c2Cl)-n2nc(C(=O)N3CCS(=O)(=O)CC3)nc21 [Example 11, [(7S)-11-chloro-9-(2,6-difluorophenyl)-7-methyl-12-(trifluoromethyl)-2,3,5,8,13-pentazatricyclo[8.4.0.02,6]tetradeca-1(10),3,5,8,11,13-hexaen-4-yl]-(1,1-dioxo-1,4-thiazinan-4-yl)methanone]
Efficacy (GABA) % (h-GABA-A α2β2γ1): 114% | Fold increase h-GABA-A α2β2γ1 oocyte @ 30-fold Ki (h-GABA-A α2β2γ1): 2.14 | Ki [1, 2]: 45.8 nM

C[C@@H]1N=C(c2c(F)cccc2F)c2c(cnc(C(F)(F)F)c2Cl)-n2nc(N3CCCC3=O)nc21 [Example 13, 1-[(7S)-11-chloro-9-(2,6-difluorophenyl)-7-methyl-12-(trifluoromethyl)-2,3,5,8,13-pentazatricyclo[8.4.0.02,6]tetradeca-1(10),3,5,8,11,13-hexaen-4-yl]pyrrolidin-2-one]
Efficacy (GABA) % (h-GABA-A α2β2γ1): 173% | Fold increase h-GABA-A α2β2γ1 oocyte @ 30-fold Ki (h-GABA-A α2β2γ1): 2.73

C[C@@H]1N=C(c2c(F)cccc2F)c2c(cnc(C(F)(F)F)c2Cl)-n2nc(C(=O)NC[C@@H](C)O)nc21 [Example 16, (7S)-11-chloro-9-(2,6-difluorophenyl)-N-[(2R)-2-hydroxypropyl]-7-methyl-12-(trifluoromethyl)-2,3,5,8,13-pentazatricyclo[8.4.0.02,6]tetradeca-1(10),3,5,8,11,13-hexaene-4-carboxamide]
Efficacy (GABA) % (h-GABA-A α2β2γ1): 166% | Fold increase h-GABA-A α2β2γ1 oocyte @ 30-fold Ki (h-GABA-A α2β2γ1): 2.66 | Ki [1, 2]: 157 nM

Cc1nc2n(n1)-c1cnc(C(F)(F)F)c(Cl)c1C(c1c(F)cccc1F)=N[C@H]2C [Example 5]
Efficacy (GABA) % (h-GABA-A α2β2γ1): 84% | Fold increase h-GABA-A α2β2γ1 oocyte @ 30-fold Ki (h-GABA-A α2β2γ1): 1.84

C[C@@H]1N=C(c2c(F)cccc2F)c2c(cnc(C(F)(F)F)c2Cl)-n2nc(C(=O)NCC3(O)CC3)nc21 [Example 22, (7S)-11-chloro-9-(2,6-difluorophenyl)-N-[(1-hydroxycyclopropyl)methyl]-7-methyl-12-(trifluoromethyl)-2,3,5,8,13-pentazatricyclo[8.4.0.02,6]tetradeca-1(10),3,5,8,11,13-hexaene-4-carboxamide]
Efficacy (GABA) % (h-GABA-A α2β2γ1): 172% | Fold increase h-GABA-A α2β2γ1 oocyte @ 30-fold Ki (h-GABA-A α2β2γ1): 2.72

Cc1ncc2c(c1Cl)C(c1c(F)cccc1F)=N[C@@H](C)c1nnc(C)n1-2 [Example 3, (7S)-11-chloro-9-(2,6-difluorophenyl)-3,7,12-trimethyl-2,4,5,8,13-pentazatricyclo[8.4.0.02,6]tetradeca-1(10),3,5,8,11,13-hexaene]
Efficacy (GABA) % (h-GABA-A α2β2γ1): 66% | Fold increase h-GABA-A α2β2γ1 oocyte @ 30-fold Ki (h-GABA-A α2β2γ1): 1.66

Cc1nnc2n1-c1cnc(Cl)c(Cl)c1C(c1c(F)cccc1F)=N[C@H]2C [Example 1, (7S)-11,12-dichloro-9-(2,6-difluorophenyl)-3,7-dimethyl-2,4,5,8,13-pentazatricyclo[8.4.0.02,6]tetradeca-1(10),3,5,8,11,13-hexaene]
Efficacy (GABA) % (h-GABA-A α2β2γ1): 55% | Fold increase h-GABA-A α2β2γ1 oocyte @ 30-fold Ki (h-GABA-A α2β2γ1): 1.55
